Measurements as given in ChEMBL document CHEMBL4145553, “Design, synthesis, and biological evaluation of novel amide and hydrazide based thioether analogs targeting Histone deacteylase (HDAC) enzymes” (Eur J Med Chem, 2018).

Columns and labels:
Assay type in all cases: functional
SK-MEL-5 [1] = assay: Growth inhibition of human SK-MEL-5 cells assessed as cell growth at 10^-7 M incubated for 48 hrs by sulforhodamine B assay relative to control; details: SK-MEL-5, 48 h, read-out: Activity
HT-29 [2] = assay: Growth inhibition of human HT-29 cells incubated for 48 hrs by sulforhodamine B assay; details: HT-29, 48 h
SF-268 = assay: Growth inhibition of human SF268 cells assessed as cell growth at 10^-5 M incubated for 48 hrs by sulforhodamine B assay relative to control; details: SF-268, 48 h, read-out: Activity
BT-549 [3] = assay: Growth inhibition of human BT549 cells assessed as cell growth at 10^-6 M incubated for 48 hrs by sulforhodamine B assay relative to control; details: BT-549, 48 h, read-out: Activity
SK-MEL-2 [4] = assay: Growth inhibition of human SK-MEL-2 cells assessed as cell growth at 10^-4 M incubated for 48 hrs by sulforhodamine B assay relative to control; details: SK-MEL-2, 48 h, read-out: Activity
COLO 205 [5] = assay: Growth inhibition of human COLO205 cells incubated for 48 hrs by sulforhodamine B assay; details: COLO 205, 48 h
MOLT-4 = assay: Growth inhibition of human MOLT4 cells assessed as cell growth at 10^-7 M incubated for 48 hrs by sulforhodamine B assay relative to control; details: MOLT-4, 48 h, read-out: Activity
HCT-15 = assay: Growth inhibition of human HCT15 cells assessed as cell growth at 10^-7 M incubated for 48 hrs by sulforhodamine B assay relative to control; details: HCT-15, 48 h, read-out: Activity
Malme-3M = assay: Growth inhibition of human MALME-3M cells assessed as cell growth at 10^-8 M incubated for 48 hrs by sulforhodamine B assay relative to control; details: read-out: Activity
SW-620 [6] = assay: Growth inhibition of human SW620 cells assessed as cell growth at 10^-5 M incubated for 48 hrs by sulforhodamine B assay relative to control; details: SW-620, 48 h, read-out: Activity
HT-29 [7] = assay: Growth inhibition of human HT-29 cells assessed as cell growth at 10^-6 M incubated for 48 hrs by sulforhodamine B assay relative to control; details: HT-29, 48 h, read-out: Activity
SK-MEL-28 [8] = assay: Growth inhibition of human SK-MEL-28 cells assessed as cell growth at 10^-7 M incubated for 48 hrs by sulforhodamine B assay relative to control; details: SK-MEL-28, 48 h, read-out: Activity
NCI-H522 = assay: Growth inhibition of human NCI-H522 cells incubated for 48 hrs by sulforhodamine B assay; details: NCI-H522, 48 h
SK-MEL-28 [9] = assay: Growth inhibition of human SK-MEL-28 cells assessed as cell growth at 10^-5 M incubated for 48 hrs by sulforhodamine B assay relative to control; details: SK-MEL-28, 48 h, read-out: Activity
NCI-H226 = assay: Growth inhibition of human NCI-H226 cells assessed as cell growth at 10^-8 M incubated for 48 hrs by sulforhodamine B assay relative to control; details: NCI-H226, 48 h, read-out: Activity
TK-10 = assay: Growth inhibition of human TK10 cells assessed as cell growth at 10^-5 M incubated for 48 hrs by sulforhodamine B assay relative to control; details: TK-10, 48 h, read-out: Activity
CAKI-1 = assay: Growth inhibition of human Caki1 cells assessed as cell growth at 10^-5 M incubated for 48 hrs by sulforhodamine B assay relative to control; details: CAKI-1, 48 h, read-out: Activity
EKVX = assay: Growth inhibition of human EKVX cells assessed as cell growth at 10^-6 M incubated for 48 hrs by sulforhodamine B assay relative to control; details: read-out: Activity
NCI/ADR-RES = assay: Growth inhibition of human NCI/ADR-RES cells assessed as cell growth at 10^-6 M incubated for 48 hrs by sulforhodamine B assay relative to control; details: read-out: Activity
SK-MEL-2 [10] = assay: Growth inhibition of human SK-MEL-2 cells assessed as cell growth at 10^-6 M incubated for 48 hrs by sulforhodamine B assay relative to control; details: SK-MEL-2, 48 h, read-out: Activity
UACC-62 = assay: Growth inhibition of human UACC62 cells assessed as cell growth at 10^-6 M incubated for 48 hrs by sulforhodamine B assay relative to control; details: UACC-62, 48 h, read-out: Activity
HCC 2998 = assay: Growth inhibition of human HCC2998 cells assessed as cell growth at 10^-6 M incubated for 48 hrs by sulforhodamine B assay relative to control; details: HCC 2998, 48 h, read-out: Activity
MDA-MB-231 = assay: Growth inhibition of human MDA-MB-231 cells assessed as cell growth at 10^-4 M incubated for 48 hrs by sulforhodamine B assay relative to control; details: MDA-MB-231, 48 h, read-out: Activity
SW-620 [11] = assay: Growth inhibition of human SW620 cells assessed as cell growth at 10^-4 M incubated for 48 hrs by sulforhodamine B assay relative to control; details: SW-620, 48 h, read-out: Activity
HT-29 [12] = assay: Growth inhibition of human HT-29 cells assessed as cell growth at 10^-8 M incubated for 48 hrs by sulforhodamine B assay relative to control; details: HT-29, 48 h, read-out: Activity
SK-OV-3 = assay: Growth inhibition of human SKOV3 cells assessed as cell growth at 10^-8 M incubated for 48 hrs by sulforhodamine B assay relative to control; details: SK-OV-3, 48 h, read-out: Activity
SF-295 = assay: Growth inhibition of human SF295 cells assessed as cell growth at 10^-8 M incubated for 48 hrs by sulforhodamine B assay relative to control; details: SF-295, 48 h, read-out: Activity
NCI-H23 = assay: Growth inhibition of human NCI-H23 cells assessed as cell growth at 10^-6 M incubated for 48 hrs by sulforhodamine B assay relative to control; details: NCI-H23, 48 h, read-out: Activity
BT-549 [13] = assay: Growth inhibition of human BT549 cells assessed as cell growth at 10^-7 M incubated for 48 hrs by sulforhodamine B assay relative to control; details: BT-549, 48 h, read-out: Activity
COLO 205 [14] = assay: Growth inhibition of human COLO205 cells assessed as cell growth at 10^-7 M incubated for 48 hrs by sulforhodamine B assay relative to control; details: COLO 205, 48 h, read-out: Activity
OVCAR-5 = assay: Growth inhibition of human OVCAR5 cells assessed as cell growth at 10^-4 M incubated for 48 hrs by sulforhodamine B assay relative to control; details: OVCAR-5, 48 h, read-out: Activity
SK-MEL-5 [15] = assay: Growth inhibition of human SK-MEL-5 cells assessed as cell growth at 10^-6 M incubated for 48 hrs by sulforhodamine B assay relative to control; details: SK-MEL-5, 48 h, read-out: Activity
[16] = read-out: LC50 (the source's name)
[17] = read-out: pLC50 (the source's name) (converted)

## CCS/C(Nc1ccccc1)=C(\C#N)C(=O)N/N=C\c1ccc(Cl)cc1Cl
SK-MEL-5 [1]
  growth at 0.1 µM: 90%
HT-29 [2]; read-out: GI50
  GI50: 3.7 µM
HT-29 [2]; [16]
  CC50: > 100 µM
HT-29 [2]; read-out: TGI
  TGI: > 100 µM
HT-29 [2]; read-out: pGI50 (converted)
  GI50: 3.72 µM
HT-29 [2]; [17]
  CC50: > 100 µM
HT-29 [2]; read-out: pTGI (converted)
  TGI: > 100 µM
SF-268
  growth at 10 µM: 42%
BT-549 [3]
  growth at 1 µM: 76%
SK-MEL-2 [4]
  growth at 100 µM: -9%
COLO 205 [5]; read-out: GI50
  GI50: 3.09 µM
COLO 205 [5]; [16]
  CC50: > 100 µM
COLO 205 [5]; read-out: pGI50 (converted)
  GI50: 3.09 µM
COLO 205 [5]; [17]
  CC50: > 100 µM
MOLT-4
  growth at 0.1 µM: 82%
HCT-15
  growth at 0.1 µM: 87%
Malme-3M
  growth at 0.01 µM: 103%
SW-620 [6]
  growth at 10 µM: 31%
HT-29 [7]
  growth at 1 µM: 101%
SK-MEL-28 [8]
  growth at 0.1 µM: 95%
NCI-H522; read-out: GI50
  GI50: 1.84 µM
NCI-H522; [16]
  CC50: > 100 µM
NCI-H522; read-out: pGI50 (converted)
  GI50: 1.82 µM
NCI-H522; [17]
  CC50: > 100 µM
SK-MEL-28 [9]
  growth at 10 µM: 53%
NCI-H226
  growth at 0.01 µM: 90%
TK-10
  growth at 10 µM: 50%
CAKI-1
  growth at 10 µM: 23%
EKVX
  growth at 1 µM: 87%
NCI/ADR-RES
  growth at 1 µM: 87%
SK-MEL-2 [10]
  growth at 1 µM: 86%
UACC-62
  growth at 1 µM: 69%
HCC 2998
  growth at 1 µM: 99%
MDA-MB-231
  growth at 100 µM: 9%
SW-620 [11]
  growth at 100 µM: 25%
HT-29 [12]
  growth at 0.01 µM: 105%
SK-OV-3
  growth at 0.01 µM: 99%
SF-295
  growth at 0.01 µM: 95%
NCI-H23
  growth at 1 µM: 90%
BT-549 [13]
  growth at 0.1 µM: 87%
COLO 205 [14]
  growth at 0.1 µM: 97%
OVCAR-5
  growth at 100 µM: 38%
SK-MEL-5 [15]
  growth at 1 µM: 81%

## CCS/C(Nc1ccccc1)=C(\C#N)C(=O)Nc1ccc(OC)cc1
SK-MEL-5 [1]
  growth at 0.1 µM: 90%
HT-29 [2]; read-out: GI50
  GI50: 3.47 µM
HT-29 [2]; [16]
  CC50: > 100 µM
HT-29 [2]; read-out: TGI
  TGI: 33.3 µM
HT-29 [2]; read-out: pGI50 (converted)
  GI50: 3.47 µM
HT-29 [2]; [17]
  CC50: > 100 µM
HT-29 [2]; read-out: pTGI (converted)
  TGI: 33.1 µM
SF-268
  growth at 10 µM: 42%
BT-549 [3]
  growth at 1 µM: 74%
SK-MEL-2 [4]
  growth at 100 µM: 14%
COLO 205 [5]; read-out: GI50
  GI50: 3.06 µM
COLO 205 [5]; [16]
  CC50: > 100 µM
COLO 205 [5]; read-out: TGI
  TGI: 11.2 µM
COLO 205 [5]; read-out: pGI50 (converted)
  GI50: 3.09 µM
COLO 205 [5]; [17]
  CC50: > 100 µM
COLO 205 [5]; read-out: pTGI (converted)
  TGI: 11.2 µM
MOLT-4
  growth at 0.1 µM: 90%
HCT-15
  growth at 0.1 µM: 88%
Malme-3M
  growth at 0.01 µM: 98%
SW-620 [6]
  growth at 10 µM: 21%
HT-29 [7]
  growth at 1 µM: 99%
SK-MEL-28 [8]
  growth at 0.1 µM: 91%
NCI-H522; read-out: GI50
  GI50: 2.21 µM
NCI-H522; [16]
  CC50: > 100 µM
NCI-H522; read-out: TGI
  TGI: 9.68 µM
NCI-H522; read-out: pGI50 (converted)
  GI50: 2.19 µM
NCI-H522; [17]
  CC50: > 100 µM
NCI-H522; read-out: pTGI (converted)
  TGI: 9.77 µM
SK-MEL-28 [9]
  growth at 10 µM: 53%
NCI-H226
  growth at 0.01 µM: 95%
TK-10
  growth at 10 µM: 66%
CAKI-1
  growth at 10 µM: 29%
EKVX
  growth at 1 µM: 84%
NCI/ADR-RES
  growth at 1 µM: 73%
SK-MEL-2 [10]
  growth at 1 µM: 86%
UACC-62
  growth at 1 µM: 71%
HCC 2998
  growth at 1 µM: 91%
MDA-MB-231
  growth at 100 µM: -18%
SW-620 [11]
  growth at 100 µM: 14%
HT-29 [12]
  growth at 0.01 µM: 109%
SK-OV-3
  growth at 0.01 µM: 103%
SF-295
  growth at 0.01 µM: 94%
NCI-H23
  growth at 1 µM: 85%
BT-549 [13]
  growth at 0.1 µM: 89%
COLO 205 [14]
  growth at 0.1 µM: 97%
OVCAR-5
  growth at 100 µM: 23%
SK-MEL-5 [15]
  growth at 1 µM: 80%
